From patent US4812567A, “Polycyclic spiroimides with psychotropic activity” (American Home Products Corporation, priority 1986, dated 1989)
Structures can show the parent of a compound that is named as a salt.

Test system: conditioned avoidance (shelf-jump response)
Experiment: conditioned avoidance (shelf-jump response) test in rats
Type: in vivo, Male CD rats
Description: A test designed to determine the potential antipsychotic activity of the compounds of this invention is the conditioned avoidance (shelf-jump response) test. Male CD rats (Charles River) maintained at approximately 400-450 gm body weight are used. […] A moveable wall, controlled by a motor, determines whether the rat has access to the shelf at any time during the experiment. The experimental chamber also contains a house light and sonalert. A steel grid floor in the main chamber is wired for presentation of electric shock. Each trial consists of a […]-second warning tone (conditioned stimulus), continuing for an additional fifteen seconds accompanied by electric shock, (unconditioned stimulus). A response (jumping onto the exposed shelf of the upper chamber) occurring during the initial fifteen-second warning tone is considered an avoidance response, while a response occurring during shock delivery is considered an escape response. Trials are presented on a fixed interval schedule of one minute. The session consists of thirty-six trials. Animals are run twice weekly with control sessions always preceding a drug run, and with at least one day intervening. Compounds are administered i.p. or p.o. at appropriate pre-treatment times to a minimum of five rats at each dose level over a range of doses. […] Response counts are summed over all subjects at a given dose. […] This number is expressed as a percentage of the total trials. […] Potential antipsychotic compounds suppress avoidance responding and increase escape responding.

O=C1CC2(CCC3CCC2C3)C(=O)N1CCCCN1CCN(c2ncccn2)CC1 (centres unmarked) [Example 1, 1'-[4-[4-(2-Pyrimidinyl)-1-piperazinyl]butyl]spiro[bicyclo[3.2.1]octane-2,3'-pyrrolidine]-2',5'-dione, dihydrochloride, hemihydrate]
Active at (i.p.): 40 mg/kg

O=C1CC2(CCCC2)CC(=O)N1CCCCN1CCN(c2cncc(Cl)n2)CC1 [Example 4, 8-[4-[4-(6-Chloro-2-pyrazinyl)-1-piperazinyl]butyl]-8-azaspiro[4,5]decane-7,9-dione dihydrochloride, hydrate]
Active at (orally administered): 40 mg/kg

O=C1CC2(CCCC2)CC(=O)N1CCCCN1CCN(c2nccnc2Cl)CC1 [Example 5, 8-[4-[4-(3-Chloro-2-pyrazinyl)-1-piperazinyl]butyl]-8-azaspiro[4,5]decane-7,9-dione dihydrochloride, hemihydrate]
Active at (i.p.): 40 mg/kg

O=C1CC2(CCCC2)CC(=O)N1CCCCN1CCN(c2ccc(Cl)nn2)CC1 [Example 6, 8-[4-[4-(6-Chloro-3-pyridazinyl]-1-piperazinyl]-8-azaspiro[4,5]decane-7,9-dione dihydrochloride]
Active at (i.p.): 40 mg/kg

Octahydro-1'-[4-[4-(2-Pyrimidinyl)-1-piperazinyl]butyl]spiro[4,7-methano-5H-indene-5,3'-pyrrolidine]-2',5'-dione, dihydrochloride [Example 2]
Active at (i.p.): 40 mg/kg
